Experimental data: the NIST ThermoML archive (doi:10.1016/j.fluid.2013.07.061)
± gives the expanded uncertainty stated by the source.

Key:
[1] = DTA; for Normal melting temperature: Crystal 1
[2] = Molar enthalpy of transition or fusion; settings: DSC

| Compound | Normal melting temperature [1] | Triple point temperature ([1]; Crystal 2) | Triple point temperature ([1]; Crystal 3) | Molar enthalpy of transition or fusion ([2]; Crystal 1) | Molar enthalpy of transition or fusion ([2]; Crystal 2) | Molar enthalpy of transition or fusion ([2]; Crystal 3) |
| --- | --- | --- | --- | --- | --- | --- |
| CCC[N+]1(C)CCCC1.F[P-](F)(F)(F)(F)F [1-methyl-1-propylpyrrolidinium hexafluorophosphate] | 110.5 ± 1.4 °C | 360.88 ± 1.7 K | 348.58 ± 1.3 K | 0.875 ± 0.0765 kcal/mol | 0.55 ± 0.0478 kcal/mol | 0.66 ± 0.0502 kcal/mol |
| CCC[N+]1(C)CCCCC1.F[P-](F)(F)(F)(F)F [1-methyl-1-propylpiperidinium hexafluorophosphate] | 95.1 ± 0.4 °C | 350.96 ± 0.39 K | 310.6 ± 0.73 K | 1.23 ± 0.0454 kcal/mol | 0.664 ± 0.0335 kcal/mol | 1.89 ± 0.1 kcal/mol |
| CCCC[N+](CCCC)(CCCC)CCCC.F[P-](F)(F)(F)(F)F [tetrabutylammonium hexafluorophosphate] | 251.1 ± 0.9 °C | 360.7 ± 0.7 K | 303.95 ± 0.39 K | 3.92 ± 0.153 kcal/mol | 0.492 ± 0.55 kcal/mol | 0.502 ± 0.0526 kcal/mol |
| CCCC[P+](CCCC)(CCCC)CCCC.F[P-](F)(F)(F)(F)F [tetrabutylphosphonium hexafluorophosphate] | 225.5 ± 0.4 °C | – | 265.37 ± 0.39 K | 3.51 ± 0.0884 kcal/mol | – | 0.433 ± 0.0335 kcal/mol |
